The values that follow come from EP0046377A1, “Cycloalkenylcarboxamido derivatives of tetramisole, their preparation and use in medicine” (BEECHAM GROUP PLC, priority 1980, dated 1982).

What all share (format): in vivo
In one experiment the test system is Nematospiroides dubius. The experiment is described as follows: Oral administration to mice infected with Nematospiroides dubius; % reduction in worm numbers versus untreated infected controls. Particulars: % reduction in numbers of worms vs untreated infected controls; for inhibition in vivo at 5 mg/kg / inhibition in vivo at 50 mg/kg: Heligmosomoides polygyrus. Here is the method:
The compounds of Examples 1 to 15 were each administered orally to mice infected with Nematospiroides dubius at various dosages. Activity was calculated as % reduction in the numbers of worms in treated as opposed to control (untreated, infected) animals.

Another experiment deals with Fluke. Briefly: Test to demonstrate fluke activity in an artificially infected sheep. As to conditions: sheep infected with 100 metacercariae, treated orally at 30 mg/kg 4-5 months later. Here is the method:
A sheep was artificially infected with 100 metacercariae and 4 - 5 months later was treated, orally, with 6-[3-(3-cyclohexen-1-ylcarboxamido)-phenyl7-2,3,5,6-tetrahydroimidazo [2,1-b]thiazole at 30 mg/kg.

The next experiment concerns Sheep Roundworms. The experiment is described as follows: Activity against sheep roundworms (mixed roundworm infection). Here is the method:
(§1) A single subcutaneous injection of 5 mg/kg of the laevo amide of Example 12a, as a solution of its hydrochloride (in a mixture of propylene glycol, 70%; benzyl alcohol, 4%; and made up to 100% with water), to a sheep with a mixed roundworm infection, removed >99.9% of all worms present and was 100% active against lungworm.

The subject of a further experiment is lungworm. Briefly: Activity against lungworm in a sheep with mixed roundworm infection. As to conditions: single subcutaneous injection of 5 mg/kg, solution of hydrochloride. As for the experimental part:
as §1

A further experiment concerns adult Brugia pahangi. Briefly: Activity against Brugia pahangi in the cat (macrofilaricidal activity). Particulars: five daily doses at 5 mg/kg s.c. As for the experimental part:
Five daily doses of the laevo amide of Example 12a administered at 5 mg/kg s.c. to a cat infected with adult Brugia pahangi was 100% effective against this parasite.

In another experiment the test system is ascarids. The experiment is described as follows: Activity against dog parasites: ascarids. Particulars: single oral dose of 7.5 mg/kg. As for the experimental part:
(§2) A single oral dose of 7.5 mg/kg of the laevo amide of Example 12a to a dog was 100% effective against ascarids, hookworm and whipworm.

The test system of the next experiment is hookworm. Briefly: Activity against dog parasites: hookworm. As to conditions: single oral dose of 7.5 mg/kg. Here is the method:
as §2

In another experiment the test system is whipworm. Briefly: Activity against dog parasites: whipworm. As to conditions: single oral dose of 7.5 mg/kg. Here is the method: as §2

Each structure is given as a SMILES string. Structures can show the parent of a compound that is named as a salt.

The inhibition in vivo is the relative decrease from the control value, in per cent. Low readings indicate little suppression, high ones strong suppression.

As to `O=C(Nc1cccc(C2CN3CCSC3=N2)c1)C1CC=CCC1` (racemic) [Example 1], in the experiment on Nematospiroides dubius (Dose 5 mg/kg), the inhibition in vivo at 5 mg/kg amounted to 55%. Also, the inhibition in vivo at 50 mg/kg in the experiment with Nematospiroides dubius (Dose 50 mg/kg) was determined as 99%. Also, the “activity (post-mortem fluke worm counts)” value in the experiment on Fluke is recorded as greater than 95%. Besides, in the experiment with Fluke (3-4 days after dosing), the Fluke egg counts entry is on record as “zero”. Also, the removal of roundworms result in the experiment on Sheep Roundworms (single oral dose of 15 mg/kg, aqueous solution of hydrochloride salt) is listed as “removed all roundworms present”.

`CC1(C)C=C(C(=O)Nc2cccc(C3CN4CCSC4=N3)c2)C=CC1` (stereo not shown) [Example 2, 6-[3-(3,3-dimethyl-1,5-cyclohexadien-1-ylcarboxamido)phenyl]-2,3,5,6-tetrahydroimidazo[-2,1-b]thiazole hydrochloride] came in with an inhibition in vivo at 5 mg/kg in the experiment with Nematospiroides dubius (Dose 5 mg/kg) of 57%. Also, the inhibition in vivo at 50 mg/kg in the experiment with Nematospiroides dubius (Dose 50 mg/kg) was 99%.

As for `O=C(Nc1cccc(C2CN3CCSC3=N2)c1)C1=CCC=CC1` (stereo not shown) [Example 3], the Activity % with Nematospiroides dubius (Dose 5 mg/kg) is 58%; in the experiment on Nematospiroides dubius (Dose 50 mg/kg), 100%.

`O=C(Nc1cccc(C2CN3CCSC3=N2)c1)C1C=CCC1` (stereo not shown) [Example 4, 6-[3-(2-cyclopenten-1-ylcarboxamido)phenyl]-2,3,5,6-tetrahydroimidazo[2,1-b]thiazole] came in with an inhibition in vivo at 5 mg/kg with Nematospiroides dubius (Dose 5 mg/kg) of 100%. The compound also gave an inhibition in vivo at 50 mg/kg in the experiment on Nematospiroides dubius (Dose 50 mg/kg) of 100%.

In the case of `O=C(Nc1cccc(C2CN3CCSC3=N2)c1)C1C=CCCC1` (stereo not shown) [Example 5], the inhibition in vivo at 5 mg/kg in the experiment with Nematospiroides dubius (Dose 5 mg/kg) amounted to 65%. In the experiment with Nematospiroides dubius (Dose 50 mg/kg), this compound displayed an inhibition in vivo at 50 mg/kg of 100%.

Compound `O=C(Nc1cccc(C2CN3CCSC3=N2)c1)C1=CC2(CC=C1)CCCC2` (stereo not shown) [Example 6] gave an inhibition in vivo at 5 mg/kg with Nematospiroides dubius (Dose 5 mg/kg) of 45%. The same compound returned an inhibition in vivo at 50 mg/kg in the experiment with Nematospiroides dubius (Dose 50 mg/kg) of 100%.

The compound `CC1C=CCCC1C(=O)Nc1cccc(C2CN3CCSC3=N2)c1` (stereo not shown) [Example 7] came in with an inhibition in vivo at 5 mg/kg in the experiment with Nematospiroides dubius (Dose 5 mg/kg) of 55%. In addition, in the experiment on Nematospiroides dubius (Dose 50 mg/kg), at 50 mg/kg the inhibition in vivo was 100%.

`CC1C=CCC(C(=O)Nc2cccc(C3CN4CCSC4=N3)c2)C1` (stereo not shown) [Example 8]: the inhibition in vivo at 5 mg/kg in the experiment on Nematospiroides dubius (Dose 5 mg/kg) came out at 59%. In the experiment with Nematospiroides dubius (Dose 50 mg/kg), this compound came in with an inhibition in vivo at 50 mg/kg of 99%.

In the experiment on Nematospiroides dubius (Dose 5 mg/kg), `O=C(Nc1cccc(C2CN3CCSC3=N2)c1)C1=CCCCC1` (stereo not shown) [Example 9] had an inhibition in vivo at 5 mg/kg of 76%. Moreover, 50 mg/kg produced 99% inhibition in vivo in the experiment with Nematospiroides dubius (Dose 50 mg/kg).

As for `O=C(Nc1cccc(C2CN3CCSC3=N2)c1)C1=CCCCCC1` (stereo not shown) [Example 10], 5 mg/kg produced 90% inhibition in vivo in the experiment with Nematospiroides dubius (Dose 5 mg/kg). Besides, 50 mg/kg produced 100% inhibition in vivo with Nematospiroides dubius (Dose 50 mg/kg).

For the compound `O=C(Nc1cccc(C2CN3CCSC3=N2)c1)C1CC=CC1` (stereo not shown) [Example 11], in the experiment on Nematospiroides dubius (Dose 5 mg/kg), at 5 mg/kg the inhibition in vivo was 84%. Also, 50 mg/kg produced 100% inhibition in vivo in the experiment with Nematospiroides dubius (Dose 50 mg/kg).

As for `O=C(Nc1cccc(C2CN3CCSC3=N2)c1)C1=CC2(CC=CCC2)CC=C1` (stereo not shown) [Example 12], at 5 mg/kg the inhibition in vivo in the experiment with Nematospiroides dubius (Dose 5 mg/kg) was 19%. The compound also registered an inhibition in vivo at 50 mg/kg with Nematospiroides dubius (Dose 50 mg/kg) of 94%.

With `O=C(Nc1cccc(C2CN3CCSC3=N2)c1)C1CC=CCC1` (stereo not drawn) [Example 14a, 6-[3-(3-cyclohexen-1-ylcarboxamido)phenyl] -2,3,5,6-tetrahydroimidazo[2,l-b]thiazole], the Activity % in the experiment on Nematospiroides dubius (Dose 2.5 mg/kg) and with Nematospiroides dubius (Dose 10 mg/kg) was 100% throughout. In the experiment on Sheep Roundworms (single subcutaneous injection of 5 mg/kg, solution of hydrochloride in propylene glycol 70%/benzyl alcohol 4%/water), this compound gave a worms removed greater than 99.9%. This compound also displayed an active against lungworm in the experiment with lungworm of 100%. Also, in the experiment on adult Brugia pahangi, the “effective against Brugia pahangi” value is recorded as 100%. The same compound showed an effective against ascarids with ascarids of 100%. Further, the effective against hookworm in the experiment with hookworm was 100%. For the same compound, the effective against whipworm with whipworm is reported as 100%.

Turning to `O=C(Nc1cccc(C2CN3C=CSC3=N2)c1)C1CC=CCC1` (stereo not shown) [Example 15], the inhibition in vivo at 5 mg/kg in the experiment on Nematospiroides dubius (Dose 5 mg/kg) was 71%. In the experiment with Nematospiroides dubius (Dose 50 mg/kg), this compound had an inhibition in vivo at 50 mg/kg of 100%.
